This note sets out measurements from ChEMBL document CHEMBL3046966, “Structure and Fungicidal Activities of 2-Methoxyimino-N-methyl-2-[2-(substituted pyridyloxymethyl)phenyl]acetamide Derivatives” (1998).

Common to all, as to format: functional
In test [1] the test system is Blumeria graminis f. sp. tritici. Briefly: Fungicidal activity against Blumeria graminis f. sp. tritici assessed as wheat powdery mildew disease control at 2 ppm foliar application for 24 hr after inoculation by curative manner.
For test [2], the system named is Podosphaera fuliginea. The test can be described thus: Fungicidal activity against Podosphaera fuligineas assessed as cucumber […] mildew disease control at 31.3 ppm foliar application 24 hr after inoculation by curative manner.
Test [3] relates to Pyricularia oryzae. Briefly: Fungicidal activity against Magnaporthe oryzae assessed as rice blast disease control at 125 ppm foliar application for 24 hr before inoculation by preventive manner.
The test system of test [4] is Pseudoperonospora cubensis. Briefly: Fungicidal activity against Pseudoperonospora cubensis assessed as cucumber downy mildew disease control at 7.8 ppm foliar application 24 hr after inoculation by curative manner.
Test [5] relates to Podosphaera fuliginea. Briefly: Fungicidal activity against Podosphaera fuligineas assessed as cucumber […] mildew disease control at 31.3 ppm foliar application 24 hr before inoculation by preventive manner.
The test system of test [6] is Botrytis cinerea. The test can be described thus: Fungicidal activity against Botryotinia fuckeliana assessed as cucumber gray mold disease control at 2 ppm foliar application 24 hr after inoculation by curative manner.
Test [7] relates to Blumeria graminis f. sp. tritici. Briefly: Fungicidal activity against Blumeria graminis f. sp. tritici assessed as wheat powdery mildew disease control at 7.8 ppm foliar application for 24 hr before inoculation by preventive manner.
Test [8] concerns Pseudoperonospora cubensis. Briefly: Fungicidal activity against Pseudoperonospora cubensis assessed as cucumber downy mildew disease control at 31.3 ppm foliar application 24 hr after inoculation by preventive manner.
The test system of test [9] is Pyricularia oryzae. Briefly: Fungicidal activity against Magnaporthe oryzae assessed as rice blast disease control at 31.3 ppm foliar application for 24 hr after inoculation by curative manner.
Test [10] relates to Botrytis cinerea. The test can be described thus: Fungicidal activity against Botryotinia fuckeliana assessed as cucumber gray mold disease control at 2 ppm foliar application 24 hr before inoculation by preventive manner.
Test [11] concerns Podosphaera fuliginea. The test can be described thus: Fungicidal activity against Podosphaera fuligineas assessed as cucumber […] mildew disease control at 2 ppm foliar application 24 hr after inoculation by curative manner.
For test [12], the system named is Pseudoperonospora cubensis. Briefly: Fungicidal activity against Pseudoperonospora cubensis assessed as cucumber downy mildew disease control at 31.3 ppm foliar application 24 hr after inoculation by curative manner.
Test [13] has as its system Pyricularia oryzae. Briefly: Fungicidal activity against Magnaporthe oryzae assessed as rice blast disease control at 2 ppm foliar application for 24 hr before inoculation by preventive manner.
Test [14] concerns Podosphaera fuliginea. Briefly: Fungicidal activity against Podosphaera fuligineas assessed as cucumber […] mildew disease control at 7.8 ppm foliar application 24 hr before inoculation by preventive manner.
Test [15] concerns Pyricularia oryzae. Briefly: Fungicidal activity against Magnaporthe oryzae assessed as rice blast disease control at 2 ppm foliar application for 24 hr after inoculation by curative manner.
Test [16] has as its system Botrytis cinerea. The test can be described thus: Fungicidal activity against Botryotinia fuckeliana assessed as cucumber gray mold disease control at 7.8 ppm foliar application 24 hr before inoculation by preventive manner.
The test system of test [17] is Blumeria graminis f. sp. tritici. Briefly: Fungicidal activity against Blumeria graminis f. sp. tritici assessed as wheat powdery mildew disease control at 2 ppm foliar application for 24 hr before inoculation by preventive manner.
Test [18] concerns Pseudoperonospora cubensis. Briefly: Fungicidal activity against Pseudoperonospora cubensis assessed as cucumber downy mildew disease control at 2 ppm foliar application 24 hr after inoculation by curative manner.
Test [19] relates to Podosphaera fuliginea. Briefly: Fungicidal activity against Podosphaera fuligineas assessed as cucumber […] mildew disease control at 7.8 ppm foliar application 24 hr after inoculation by curative manner.
The test system of test [20] is Botrytis cinerea. Briefly: Fungicidal activity against Botryotinia fuckeliana assessed as cucumber gray mold disease control at 125 ppm foliar application 24 hr before inoculation by preventive manner.
Test [21] has as its system Blumeria graminis f. sp. tritici. Briefly: Fungicidal activity against Blumeria graminis f. sp. tritici assessed as wheat powdery mildew disease control at 31.3 ppm foliar application for 24 hr before inoculation by preventive manner.
The subject of test [22] is Pyricularia oryzae. The test can be described thus: Fungicidal activity against Magnaporthe oryzae assessed as rice blast disease control at 31.3 ppm foliar application for 24 hr before inoculation by preventive manner.
The test system of test [23] is Blumeria graminis f. sp. tritici. Briefly: Fungicidal activity against Blumeria graminis f. sp. tritici assessed as wheat powdery mildew disease control at 7.8 ppm foliar application for 24 hr after inoculation by curative manner.
Test [24] has as its system Botrytis cinerea. Briefly: Fungicidal activity against Botryotinia fuckeliana assessed as cucumber gray mold disease control at 125 ppm foliar application 24 hr after inoculation by curative manner.
Test [25] has as its system Pseudoperonospora cubensis. Briefly: Fungicidal activity against Pseudoperonospora cubensis assessed as cucumber downy mildew disease control at 125 ppm foliar application 24 hr after inoculation by preventive manner.
Test [26] deals with Blumeria graminis f. sp. tritici. The test can be described thus: Fungicidal activity against Blumeria graminis f. sp. tritici assessed as wheat powdery mildew disease control at 125 ppm foliar application for 24 hr before inoculation by preventive manner.
Test [27] shares this test system. Briefly: Fungicidal activity against Blumeria graminis f. sp. tritici assessed as wheat powdery mildew disease control at 125 ppm foliar application for 24 hr after inoculation by curative manner.
Test [28] deals with Pyricularia oryzae. The test can be described thus: Fungicidal activity against Magnaporthe oryzae assessed as rice blast disease control at 7.8 ppm foliar application for 24 hr before inoculation by preventive manner.
Test [29] deals with Podosphaera fuliginea. The test can be described thus: Fungicidal activity against Podosphaera fuligineas assessed as cucumber […] mildew disease control at 2 ppm foliar application 24 hr before inoculation by preventive manner.
The subject of test [30] is Pseudoperonospora cubensis. The test can be described thus: Fungicidal activity against Pseudoperonospora cubensis assessed as cucumber downy mildew disease control at 7.8 ppm foliar application 24 hr after inoculation by preventive manner.
Test [31] relates to Pyricularia oryzae. The test can be described thus: Fungicidal activity against Magnaporthe oryzae assessed as rice blast disease control at 7.8 ppm foliar application for 24 hr after inoculation by curative manner.
Test [32] relates to Pseudoperonospora cubensis. The test can be described thus: Fungicidal activity against Pseudoperonospora cubensis assessed as cucumber downy mildew disease control at 2 ppm foliar application 24 hr before inoculation by preventive manner.
Test [33] has as its system Botrytis cinerea. Briefly: Fungicidal activity against Botryotinia fuckeliana assessed as cucumber gray mold disease control at 31.3 ppm foliar application 24 hr before inoculation by preventive manner.
The test system of test [34] is Botrytis cinerea. Briefly: Fungicidal activity against Botryotinia fuckeliana assessed as cucumber gray mold disease control at 31.3 ppm foliar application 24 hr after inoculation by curative manner.
For test [35], the system named is Botrytis cinerea. Briefly: Fungicidal activity against Botryotinia fuckeliana assessed as cucumber gray mold disease control at 7.8 ppm foliar application 24 hr after inoculation by curative manner.
In test [36] the test system is Pyricularia oryzae. Briefly: Fungicidal activity against Magnaporthe oryzae assessed as rice blast disease control at 125 ppm foliar application for 24 hr after inoculation by curative manner.
In test [37] the test system is Blumeria graminis f. sp. tritici. The test can be described thus: Fungicidal activity against Blumeria graminis f. sp. tritici assessed as wheat powdery mildew disease control at 31.3 ppm foliar application for 24 hr after inoculation by curative manner.
Test [38] deals with Podosphaera fuliginea. Briefly: Fungicidal activity against Podosphaera fuligineas assessed as cucumber […] mildew disease control at 125 ppm foliar application 24 hr before inoculation by preventive manner.

Regarding `CNC(=O)/C(=N/OC)c1ccccc1COc1ccc(Cl)cn1`, the Activity in [1], in test [2], in test [3], in [4], in test [5] and in test [6] was 90% each time. The Activity in test [7], in [8], in [9] and in test [10] was 90% each time.
Take `CNC(=O)/C(=N/OC)c1ccccc1COc1ncccc1C(F)(F)F`: the Activity in test [11], in test [1], in test [12], in test [13], in [14] and in test [15] was 90% in each case. For the same compound, the Activity in test [16], in [17], in test [6] and in [8] was 90% in each case.
Take `CNC(=O)/C(=N/OC)c1ccccc1COc1cccc(OC)n1`: the Activity in test [18], in test [19], in test [20], in test [12], in [21] and in test [14] was 90% in each case. Also, the Activity in test [22], in test [23], in test [24], in [9] and in test [25] was 90% in each case.
For the compound `CNC(=O)/C(=N/OC)c1ccccc1COc1cccc(OC(C)C)n1`, the Activity in test [20], in [12], in [26], in test [2], in [22] and in test [5] was 90% throughout. Besides, the Activity in [24] was under 90%; in test [27] it was 90%; in [9] it was 90%; in test [25] it was under 90%.
Take `CNC(=O)/C(=N/OC)c1ccccc1COc1ncc(C(F)(F)F)cc1Cl`: the Activity in test [11], in test [18], in test [1], in test [28], in test [29] and in test [17] was 90% throughout. In addition, the Activity in test [30], in test [6], in test [31] and in test [10] was 90% in each case.
With `CNC(=O)/C(=N/OC)c1ccccc1COc1ncc(Cl)cc1Cl`, the Activity in test [11], in test [18], in test [28], in test [29], in [23] and in test [7] was 90% in each case. The Activity in [32], in test [33], in test [9] and in test [34] was 90% in each case.
With `CNC(=O)/C(=N/OC)c1ccccc1COc1ncc(Cl)cc1C(F)(F)F`, the Activity in test [11], in test [18], in [1], in test [28], in [29] and in test [16] was 90% in each case. In addition, the Activity in test [17], in test [30], in test [6] and in test [31] was 90% in each case.
For the compound `CNC(=O)/C(=N/OC)c1ccccc1COc1nc(Cl)ccc1C(F)(F)F`, the Activity in test [11], in test [18], in [1], in [28], in test [29] and in test [16] was 90% in each case. Also, the Activity in test [35], in test [17], in test [32] and in test [31] was 90% throughout.
In the case of `CNC(=O)/C(=N/OC)c1ccccc1COc1ccc(C(F)(F)F)c(Cl)n1`, the Activity in [11], in test [18], in test [28], in test [16], in [35] and in test [5] was 90% throughout. Besides, the Activity in test [23], in test [7], in test [8] and in test [31] was 90% in each case.
As to `CNC(=O)/C(=N/OC)c1ccccc1COc1nc(OC)ccc1C(F)(F)F`, the Activity in test [11], in test [21], in test [29], in test [36], in test [3] and in test [4] was 90% in each case. The Activity in test [24] is under 90%; in test [27] it was 90%; in test [33], 90%; in test [25], 90%.
For the compound `CNC(=O)/C(=N/OC)c1ccccc1COc1ccc(C(F)(F)F)c(OC(C)C)n1`, the Activity is 90% in [19]; under 90% in test [20]; 90% in test [12]; 90% in test [21]; 90% in test [14]; 90% in [36]. The Activity in test [3] was 90%; in test [24], under 90%; in [27], 90%; in test [25] it was under 90%.
In the case of `CNC(=O)/C(=N/OC)c1ccccc1COc1nc(Cl)c(C(F)(F)F)cc1Cl`, the Activity in [11], in test [18], in [1], in test [29], in test [16] and in test [22] was 90% each time. Besides, the Activity in test [7], in test [9], in test [25] and in [34] was 90% in each case.
For `CNC(=O)/C(=N\OC)c1ccccc1COc1cccc(C(F)(F)F)n1`, the Activity in test [37], in test [20], in test [38], in test [21], in [2] and in [22] was 90% each time. Moreover, the Activity was 90% in [4], under 90% in test [24], 90% in test [9] and 90% in test [25].
For `CNC(=O)/C(=N/OC)c1ccccc1COc1ccccn1`, the Activity in test [37] is recorded as 90%; in test [12], 90%; in [14] it was 90%; in test [2], 90%; in test [36] it was under 90%; in [3], under 90%. For the same compound, the Activity in test [7], in [33], in test [25] and in test [34] was 90% in each case.
